From US20200315998A1, “COMPOSITION FOR IMPROVING INTESTINAL BARRIER FUNCTION” (SUNTORY HOLDINGS LIMITED, priority 2017, published 2020)

System: Caco-2 cells
Assay: Evaluation of intestinal barrier function improvement: TEER reduction suppression in Caco-2 monolayer with inflammatory cytokines (TNFα, IL-1β, IFNγ)
Assay type: cell-based, human
Details: for Synergistic effect (M.V./T/V/) / TEER reduction suppression ratio (%) +gallic acid (actual measurement value) (M.V.) / Synergistic effect (M.V./T.V.): combined use of phenolic compound and gallic acid; for TEER reduction suppression ratio (%) +gallic acid (theoretical value) (T.V.): sum of ratios of phenolic compound alone and gallic acid alone; for TEER reduction suppression ratio: sample alone 100 μM, TNFα 40 ng/mL, IL-1β 20 ng/mL, IFNγ 10 ng/mL, 48 hours; for Relative value of TEER reduction suppression ratio: sample alone 1 μM; for Synergistic effect (relative value of actual measurement value / relative value of theoretical value): combined use of the phenolic compound with gallic acid, 1 μM each (Table 1)
Description: The intestinal barrier function improvement effect is indicated by, for example, increase in the electrical resistance value (transepithelial electric resistance: TEER) of the intestinal epithelial cells or suppression of the decrease in the TEER. A substance increasing the TEER or suppressing the decrease thereof has the action of normalizing or strengthening the tight junction in the intestinal epithelial cells. The intestinal barrier function improvement effect is also indicated by decrease in the amount of a substance permeating from the intestinal side of the intestinal epithelial cells to the inside of the body. The person skilled in the art can select a specific method of evaluating the intestinal barrier function improvement effect depending on the purpose. For exarple, as shown in Examples to be described later, a method for measuring TEER using an intestinal permeation model using human intestinal epithelial cells (Caco-2 cells) can be used. Specifically, inflammatory cytokine (TNFα, IL-1β, IFNγ and the like) is added into Caco-2 monolayer cultured cells to produce a state where the intestinal barrier function can be collapsed in human. If the addition of a test substance suppresses the decrease in the TEER as compared with the case where the substance is not added, the test substance can be evaluated to have the intestinal barrier function improvement effect.
Caco-2 cells were cultured for three weeks at 37° C. in Transwell (manufactured by Millicell Corporation) using DMEM (Dulbecco's modified Eagle's medium). A medium was removed from a plate of cultured Caco-2 cells, and the well was washed 3 times with serum-free DMEM. The well was filled with the medium. Then, the transepithelial electrical resistance (TEER) of Caco-2 monolayer cells was measured by Millicell-ERS (manufactured by Millipore Corporation). Cells (TEER≥1000 Ω·cm^2) determined that a sufficient tight junction was formed were selected, and used for the next screening. Then, to test solutions (media) on both apical and basolateral membrane sides, a sample, TNFα (40 ng/mL), IL-1β (20 ng/mL), and IFNγ (10 ng/mL) were added, followed by cultivating for 48 hours. The sample was dissolved in dimethyl sulfoxide (DMSO), and the solution was then added to the test solutions. In this case, a well to which inflammatory cytokine (TNFα, IL-1β, and IFNγ) and the sample were not added was provided as normal. A well to which inflammatory cytokine was added and the sample was not added was provided as control. After the cultivation, TEER was measured again, to evaluate whether the sample suppressed the reduction (decrease) of TEER due to the inflammatory cytokine.
The TEER reduction suppression ratio (%) due to the sample was determined according to the following formula from the TEER values of the well to which the sample was added, normal, and control.
(Calculating formula of TEER reduction suppression ratio) TEER reduction suppression ratio (%)=100×((TEER of well to which sample is added)−(TEER of control))/((TEER of normal)−(TEER of control))
In this evaluation system, as the TEER reduction suppression ratio (%) is higher, an intestinal barrier function improvement effect is higher.

[1] = Evaluation 1, catechin (CA) set to 1.0
[2] = Evaluation 3, gallocatechin (GC) set to 1.0

Molecule | Synergistic effect (M.V./T/V/) (each 10 μM) | TEER reduction suppression ratio (%) +gallic acid (actual measurement value) (M.V.) (each 10 μM) [%] | Synergistic effect (M.V./T.V.) (each 1 μM) | TEER reduction suppression ratio (%) +gallic acid (actual measurement value) (M.V.) (each 1 μM) [%] | also measured
Oc1cc(O)c2c(c1)O[C@H](c1ccc(O)c(O)c1)[C@H](O)[C@H]2c1c(O)cc(O)c2c1O[C@H](c1ccc(O)c(O)c1)[C@@H](O)C2 [Procyanidin B1, procyanidin B1] | 2.4 | 74 |  |  | TEER reduction suppression ratio (%) +gallic acid (theoretical value) (T.V.) (10 μM each): 31%
O=c1c(O)c(-c2ccc(O)c(O)c2)oc2cc(O)cc(O)c12 [Quercetin, quercetin, reference compound] | 1.7 | 61 |  |  | TEER reduction suppression ratio: 75.0%
O=C(O[C@@H]1Cc2c(O)cc(O)cc2O[C@@H]1c1ccc(O)c(O)c1)c1cc(O)c(O)c(O)c1 [Epicatechin gallate, epicatechin gallate] | 2.3 | 110 |  |  | 
catechin [Catechin (CA)] |  |  |  |  | Relative value of TEER reduction suppression ratio [1]: 1.0; Synergistic effect (relative value of actual measurement value / relative value of theoretical value): 2.0
O=C(OC[C@H]1O[C@@H](OC(=O)c2cc(O)c(O)c(O)c2)[C@H](OC(=O)c2cc(O)c(O)c(O)c2)[C@@H](OC(=O)c2cc(O)c(O)c(O)c2)[C@@H]1O)c1cc(O)c(O)c(O)c1 [1,2,3,6-tetra-O-galloyl-β-D-glucose] |  |  | 1.5 | 81 | 
O=C(O[C@@H]1O[C@H](CO)[C@@H](O)[C@H](O)[C@H]1O)c1cc(O)c(O)c(O)c1 [β-glucogallin] |  |  | 2.4 | 48 | 
O=C(/C=C/c1ccc(O)cc1)c1c(O)cc(O)cc1O [Naringenin chalcone, 4,2′,4′,6′-tetra-hydroxy chalcone] | 1.7 | 51 |  |  | 
O=c1cc(-c2ccc(O)cc2)oc2cc(O)cc(O)c12 [Apigenin, apigenin] | 4.1 | 51 |  |  | 
O=c1cc(-c2ccc(O)c(O)c2)oc2cc(O)cc(O)c12 [Luteolin, luteolin] | 1.6 | 58 |  |  | 
Oc1cc(O)c2c(c1)O[C@H](c1cc(O)c(O)c(O)c1)[C@@H](O)C2 [Galloatechin (GC), gallocatechin] |  |  |  |  | Relative value of TEER reduction suppression ratio [2]: 1.0; Synergistic effect (relative value of actual measurement value / relative value of theoretical value): 2.5
O=c1c(-c2ccc(O)cc2)coc2cc(O)cc(O)c12 [Genistein, genistein] | 1.6 | 58 |  |  | 
O=C(O)c1cc(O)c(O)c(O)c1 [Gallic acid (GA), 3,4,5-trihydroxybenzoic acid] |  |  |  |  | TEER reduction suppression ratio of gallic acid relative to quercetin at the same concentration (100 μM each, gallic acid vs quercetin): about 1.15 times; Relative value of TEER reduction suppression ratio [1]: 0.4; Relative value of TEER reduction suppression ratio (Evaluation 2, epicatechin (EC) set to 1.0): 0.5; Relative value of TEER reduction suppression ratio [2]: 0.3; Relative value of TEER reduction suppression ratio (Evaluation 4, epigallocatechin (EGC) set to 1.0): 0.2; Suppression of the reduction of TEER due to inflammatory cytokine (gallic acid alone, 1 μM and 10 μM): suppressed the reduction of TEER; TEER reduction suppression ratio: 86.5%
O=C(OC[C@H]1O[C@@H](OC(=O)c2cc(O)c(O)c(O)c2)[C@H](OC(=O)c2cc(O)c(O)c(O)c2)[C@@H](OC(=O)c2cc(O)c(O)c(O)c2)[C@@H]1OC(=O)c1cc(O)c(O)c(O)c1)c1cc(O)c(O)c(O)c1 [1,2,3,4,6-penta-O-galloyl-β-D-glucose] |  |  | 1.4 | 91 | 
stenophyllanin A |  |  | 1.7 | 95 | TEER reduction suppression ratio (%) +gallic acid (theoretical value) (T.V.) (1 μM each): 56%
O=C1c2c(O)cc(O)cc2O[C@H](c2ccc(O)c(O)c2)[C@H]1O [Taxifolin, taxifolin] | 2.0 | 59 |  |  | 
O=c1c(O)c(-c2ccc(O)cc2)oc2cc(O)cc(O)c12 [Kaempferol, kaempferol] | 2.5 | 43 |  |  | 
Oc1cc(O)cc(/C=C/c2ccc(O)c(O)c2)c1 [Piceatannol, piceatannol] | 1.1 | 53 |  |  | 
O=c1c(O[C@@H]2O[C@H](CO)[C@@H](O)[C@H](O)[C@H]2O)c(-c2ccc(O)c(O)c2)oc2cc(O)cc(O)c12 [Quercetin-3-O-glucopyranoside, quercetin-3-O-glucopyranoside] | 1.5 | 47 |  |  | 
O=C1O[C@@H]2C3COC(=O)c4cc(O)c(O)c(O)c4-c4c(cc(O)c(O)c4O)C(=O)O[C@H]2C(OC(=O)c2cc(O)c(O)c4c2C2C1=CC(=O)C(O)(O)[C@@]2(O)O4)[C@H](OC(=O)c1cc(O)c(O)c(O)c1)O3 (stereo partly drawn) [Geraniin, geraniin] |  |  | 2.4 | 119 | 
O=C1OCC2O[C@@H](O)C3OC(=O)c4cc(O)c(O)c(O)c4-c4c(cc(O)c(O)c4O)C(=O)OC3[C@@H]2OC(=O)c2cc(O)c(O)c(O)c2-c2c1cc(O)c(O)c2O (stereo partly drawn) [Pedunculagin, pedunculagin] |  |  | 1.7 | 90 | 
O=C(OC[C@H]1O[C@@H](O)[C@H](OC(=O)c2cc(O)c(O)c(O)c2)[C@@H](OC(=O)c2cc(O)c(O)c(O)c2)[C@@H]1OC(=O)c1cc(O)c(O)c(O)c1)c1cc(O)c(O)c(O)c1 [2,3,4,6-tetra-O-galloyl-β-D-glucose] |  |  | 2.0 | 90 | 
O=C(O)/C=C/c1cccc(O)c1 [3-Coumaric acid, 3-coumaric acid] | 1.2 | 48 |  |  | 
O=C(OC1C(OC(=O)c2cc(O)c(O)c(O)c2)[C@H](O)OC2COC(=O)c3cc(O)c(O)c(O)c3-c3c(cc(O)c(O)c3O)C(=O)O[C@H]21)c1cc(O)c(O)c(O)c1 (stereo partly drawn) [Tellimagrandin I, tellimagrandin I] |  |  | 1.6 | 92 | 
O=C(O)/C=C/c1ccccc1O [2-Coumaric acid, 2-coumaric acid] | 3.0 | 46 |  |  | 
O=C(O[C@@H]1O[C@@H]2COC(=O)c3cc(O)c(O)c(O)c3-c3c(cc(O)c(O)c3O)C(=O)O[C@H]([C@H]1O)[C@@H]2O)c1cc(O)c(O)c(O)c1 [Corilagin, corilagin] |  |  | 3.4 | 76 | 
O=c1c(O)c(-c2cc(O)c(O)c(O)c2)oc2cc(O)cc(O)c12 [Myricetin, myricetin] | 1.2 | 75 |  |  | 
O=C(O[C@@H]1Cc2c(O)cc(O)cc2O[C@@H]1c1cc(O)c(O)c(O)c1)c1cc(O)c(O)c(O)c1 [Epigallocatechin gallate, epigallocatechin gallate] | 1.5 | 114 |  |  | TEER reduction suppression ratio (%) +gallic acid (theoretical value) (T.V.) (10 μM each): 76%
